Measured values: ChEMBL document CHEMBL1125208, “Applications of neural networks in quantitative structure-activity relationships of dihydrofolate reductase inhibitors” (J Med Chem, 1991)

Biological target: T1, Dihydrofolate reductase (Mus musculus) (UniProt P00375)
T1 sequence (whole entry): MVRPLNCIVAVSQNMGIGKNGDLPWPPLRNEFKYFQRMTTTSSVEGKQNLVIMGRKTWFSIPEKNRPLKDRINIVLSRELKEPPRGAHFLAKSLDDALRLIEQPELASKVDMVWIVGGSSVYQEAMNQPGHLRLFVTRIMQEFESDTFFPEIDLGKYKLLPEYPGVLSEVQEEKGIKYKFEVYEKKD
Assay: Inhibition of dihydrofolate reductase from L1210 leukemia tumors

| SMILES | Log 1/C |
| --- | --- |
| CC1(C)N=C(N)N=C(N)N1c1ccc(CCCCc2ccc(S(=O)(=O)F)cc2Cl)cc1 | 7.96 |
| CC1(C)N=C(N)N=C(N)N1c1ccc(OCCCNC(=O)Nc2cccc(S(=O)(=O)F)c2)cc1 | 7.32 |
